Reference: article PMC11714206, “Massively Parallel Screening of Toll/Interleukin‐1 Receptor (TIR)‐Derived Peptides Reveals Multiple Toll‐Like Receptors (TLRs)‐Targeting Immunomodulatory Peptides” (Advanced Science, 2024)
Blank lines part the entries; values can stand above or below the sequence they belong to.

Biological target: T1, MAL^TIR (Homo sapiens, UniProt P58753)
T1 construct: MAL (residues 79–221); 6xHis; made in house; host or cells: E. coli BL21 (DE3)
Test: T‐Surf phage library (P8 and P3) selection against MAL^TIR, four rounds, NGS read counts
Format: binding
Conditions: for P8_MAL Rank (after) / P8_MAL Rank (before): P8 library; for P3_MAL Rank (after) / P3_MAL Rank (before): P3 library; for Population: 4th round of selection against MAL TIR, share of NGS reads
In short: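 Four panning rounds on TIR domain adsorbed at 5 µg mL^−1; binding 1 h at 20–22 °C, elution with 100 mM HCl. Output: NGS read counts of round‐4 pools versus naïve library.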

[1] = selection against MAL, rank after grouping
[2] = selection against MAL, rank before grouping
[3] = P8_MAL: rank by count after grouping
[4] = P8_MAL: rank by count before grouping
[5] = selection against MAL, rank by count after grouping
[6] = selection against MAL, rank by count before grouping
[7] = selection against MAL TIR, rank by count after grouping
[8] = selection against MAL TIR, rank by count before grouping
[9] = 4R selection against MAL, rank after grouping
[10] = 4R selection against MAL, rank before grouping
[11] = P3_MAL: rank by count after grouping
[12] = P3_MAL: rank by count before grouping
[13] = P8_MAL pool: P8 T-Surf phage library

T1 sequence (P58753 79-221): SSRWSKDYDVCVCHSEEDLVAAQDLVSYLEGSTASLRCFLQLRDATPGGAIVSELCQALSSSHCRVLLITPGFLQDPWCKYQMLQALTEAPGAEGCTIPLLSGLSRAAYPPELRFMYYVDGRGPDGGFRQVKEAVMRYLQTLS

Sequence: RGLLSQLRHHLQAKDH
P3_MAL Rank (after) [1]: 578
P3_MAL Rank (before) [2]: 2421

Sequence: KERPFGAQRAEKWRA
P3_MAL Rank (after) [5]: 736
P3_MAL Rank (before) [6]: 3610

Sequence: RWFLDELVKIMERKRT
P8_MAL Rank (after) [7]: 218
P8_MAL Rank (before) [8]: 926

Sequence: AFFCTQLLNVLRKPTI
P8_MAL Rank (after) [9]: 655
P8_MAL Rank (before) [10]: 1590

Sequence: ESILNQLRRSSHSISN
P3_MAL Rank (after) [1]: 542
P3_MAL Rank (before) [2]: 2054

Sequence: LLIYRFVKKRNYLLGH
Rank (after) [11]: 416
Rank (before) [12]: 2085

Sequence: RGFLSHLRNHLQAKDP
P3_MAL Rank (after) [7]: 210
P3_MAL Rank (before) [8]: 2408

Sequence: RAFVAHPQELIQKKQQ
P3_MAL Rank (after) [5]: 739
P3_MAL Rank (before) [6]: 2454

Sequence: NFLGLLYNELVQAGLH
P8_MAL Rank (after) [7]: 259
P8_MAL Rank (before) [8]: 2675

Sequence: YAFTRHLHRYLVQSGV
Rank (after) [11]: 147
Rank (before) [12]: 1468

Sequence: DFLSHLIEAFSRMHIN
P8_MAL Rank (after) [1]: 504
P8_MAL Rank (before) [2]: 1972

Sequence: LVAHAISKKMKLFATI
Rank (after) [11]: 411
Rank (before) [12]: 2093

Sequence: AFLYTFLNNLTHTTNI
P8_MAL Rank (after) [1]: 536
P8_MAL Rank (before) [2]: 1872

Sequence: YFLHLLLFSRPETEYN
P8_MAL Rank (after) [1]: 552
P8_MAL Rank (before) [2]: 1509

Sequence: FMSHLRHHLQAKDH
Rank (after) [11]: 166
Rank (before) [12]: 709

Sequence: VGWFLHTLCQLILQKG
P3_MAL Rank (after) [9]: 632
P3_MAL Rank (before) [10]: 1630

Sequence: WFYEFLVFLILRDTKV
P8_MAL Rank (after) [7]: 251
P8_MAL Rank (before) [8]: 1143

Sequence: RNFVAYLFQALAHKSI
Rank (after) [3]: 183
Rank (before) [4]: 2199

Sequence: KEVEGWRDALSSIASRP
Rank (after) [11]: 163
Rank (before) [12]: 685

Sequence: HLFCIQLKSILGETSF
P8_MAL Rank (after) [1]: 506
P8_MAL Rank (before) [2]: 2428

Sequence: ESILNHPRRSSQILSN
P3_MAL Rank (after) [1]: 516
P3_MAL Rank (before) [2]: 2047

Sequence: TFLGHLYNTLVQPAIH
P8_MAL Rank (after) [9]: 620
P8_MAL Rank (before) [10]: 2596

Sequence: WFYERLASLILRDTKV
Population [13]: 0.0034%

Sequence: KDPDNYKFAIHERDFP
P3_MAL Rank (after) [7]: 207
P3_MAL Rank (before) [8]: 3542

Sequence: SEFIQKITLGMNPKIG
P8_MAL Rank (after) [9]: 673
P8_MAL Rank (before) [10]: 2481

Sequence: LVAHEISKKMKIFCDH
P3_MAL Rank (after) [1]: 490
P3_MAL Rank (before) [2]: 2102

Sequence: AFLYNFLLNLTHKPTF
P8_MAL Rank (after) [9]: 671
P8_MAL Rank (before) [10]: 1891

Sequence: TFLGHLYNTLVHAGTH
Rank (after) [3]: 397
Rank (before) [4]: 2600

Sequence: NQLRTALTAAANLSGW
P3_MAL Rank (after) [7]: 267
P3_MAL Rank (before) [8]: 3324

Sequence: YLKWGYPGLWDRLRFA
P3_MAL Rank (after) [7]: 212
P3_MAL Rank (before) [8]: 1517

Sequence: TFLGHLYIALVQTGIH
P8_MAL Rank (after) [7]: 261
P8_MAL Rank (before) [8]: 2558

Sequence: SSFREGLWRLLGLIKK
P3_MAL Rank (after) [5]: 680
P3_MAL Rank (before) [6]: 3140

Sequence: YLLLSVFQTIFARRTE
P8_MAL Rank (after) [7]: 238
P8_MAL Rank (before) [8]: 800

Sequence: YAFTSHLHRSLVQRGV
P3_MAL Rank (after) [7]: 257
P3_MAL Rank (before) [8]: 1473

Sequence: YAFTGHVHRYMVQRGV
P3_MAL Rank (after) [7]: 229
P3_MAL Rank (before) [8]: 1362

Sequence: AFFWEQLRTALGNPTM
P8_MAL Rank (after) [5]: 704
P8_MAL Rank (before) [6]: 1698

Sequence: HFFWIQLKAFWAKPA
Rank (after) [3]: 184
Rank (before) [4]: 992

Sequence: KNVRLARSVRKNGVP
P3_MAL Rank (after) [5]: 697
P3_MAL Rank (before) [6]: 3474

Sequence: RSFREGLWRLLELRKQ
P3_MAL Rank (after) [1]: 507
P3_MAL Rank (before) [2]: 2627

Sequence: ESILNQLRRSSESIAK
P3_MAL Rank (after) [7]: 211
P3_MAL Rank (before) [8]: 2053

Sequence: YAFTSHLYDRLQRSGI
P3_MAL Rank (after) [9]: 606
P3_MAL Rank (before) [10]: 1470

Sequence: YAFTGHPHRYLVQRGV
Population (P3_MAL pool: P3 T-Surf phage library): 0.00564%

Sequence: RHFAGLLYDRLTKTGV
Rank (after) [11]: 414
Rank (before) [12]: 2563

Sequence: PNLRTNVMNYLMRTKT
Rank (after) [11]: 175
Rank (before) [12]: 2692

Sequence: TFLGHLYNALVQAGI
P8_MAL Rank (after) [1]: 498
P8_MAL Rank (before) [2]: 2582

Sequence: PNLRTKELIYLMRTKT
P3_MAL Rank (after) [9]: 667
P3_MAL Rank (before) [10]: 2738

Sequence: TFLGHLYNALVQAGIRAFL
P8_MAL Rank (after) [9]: 588
P8_MAL Rank (before) [10]: 2579

Sequence: WFMMKFRTVLYHVNYV
Rank (after) [3]: 398
Rank (before) [4]: 1377

Sequence: FLNFRGLDVRNYFLA
Rank (after) [11]: 408
Rank (before) [12]: 1158

Sequence: LKVESWRQALEKAGT
P3_MAL Rank (after) [1]: 549
P3_MAL Rank (before) [2]: 2274

The next lines start with the values.

P8_MAL Rank (after) [1]: 519
P8_MAL Rank (before) [2]: 2433
Sequence: QFFWDQLKSILGDTRF

Rank (after) [3]: 481
Rank (before) [4]: 2445
Sequence: SEFLGAAEKRAGQSDD

P3_MAL Rank (after) [7]: 232
P3_MAL Rank (before) [8]: 3160
Sequence: SSFREGLWRLRGLSKK

P8_MAL Rank (after) [1]: 485
P8_MAL Rank (before) [2]: 1831
Sequence: AFLYTFLLNLTHQPTF

P3_MAL Rank (after) [1]: 486
P3_MAL Rank (before) [2]: 2815
Sequence: HHNGSYCEALAEHKER

Rank (after) [3]: 146
Rank (before) [4]: 1715
Sequence: AFFWPQLKSVLGNPTK

Rank (after) [3]: 457
Rank (before) [4]: 1516
Sequence: YFLNFLLFSRPETDYI

P8_MAL Rank (after) [1]: 567
P8_MAL Rank (before) [2]: 1640
Sequence: AFFWAQLKSTLGETSF

P3_MAL Rank (after) [7]: 219
P3_MAL Rank (before) [8]: 2152
Sequence: LQNQWKLALTKVAHLL

P8_MAL Rank (after) [7]: 264
P8_MAL Rank (before) [8]: 1603
Sequence: AFFWAQVKSVLGNTTM

Rank (after) [3]: 189
Rank (before) [4]: 1444
Sequence: SFYERLVRLILRDTTV

Rank (after) [3]: 135
Rank (before) [4]: 2614
Sequence: TFLGNLYNALVKAGIH

P8_MAL Rank (after) [1]: 557
P8_MAL Rank (before) [2]: 2064
Sequence: LFFWARLKNVLGSAGS

Rank (after) [11]: 452
Rank (before) [12]: 1992
Sequence: EWILDTEARIWGWRQA

Rank (after) [11]: 466
Rank (before) [12]: 3611
Sequence: KERPFGAQRAEKWRTALT

P3_MAL Rank (after) [7]: 263
P3_MAL Rank (before) [8]: 3433
Sequence: NHSRNALTAAANLSGW

Rank (after) [11]: 118
Rank (before) [12]: 386
Sequence: KEVEGWRQALEKAGKL

P8_MAL Rank (after) [1]: 564
P8_MAL Rank (before) [2]: 2069
Sequence: LFFWDSLKQLLRSAGR

Population [13]: 0.0034%
Sequence: AFLYTFLINLTHQTNF

Rank (after) [3]: 141
Rank (before) [4]: 836
Sequence: AFFWEQLRTVLDHVNDV

P8_MAL Rank (after) [7]: 278
P8_MAL Rank (before) [8]: 1946
Sequence: AYANFRQGLLRLPELLR

P3_MAL Rank (after) [7]: 255
P3_MAL Rank (before) [8]: 3406
Sequence: NQWRNELNAAANLSGW

Rank (after) [3]: 160
Rank (before) [4]: 2225
Sequence: RNFVAYLVQALAKKGI

P3_MAL Rank (after) [5]: 715
P3_MAL Rank (before) [6]: 1367
Sequence: YAFTGHLERHEVQRGV

P3_MAL Rank (after) [1]: 526
P3_MAL Rank (before) [2]: 3601
Sequence: KERLHQWKLALTQAA

P3_MAL Rank (after) [1]: 553
P3_MAL Rank (before) [2]: 1465
Sequence: YAFTRHLHRYLVQRAA

P3_MAL Rank (after) [1]: 539
P3_MAL Rank (before) [2]: 2396
Sequence: RGFLSHRRYHLQAKDH

P8_MAL Rank (after) [9]: 582
P8_MAL Rank (before) [10]: 1890
Sequence: AFLYNFFNDLTHPTIY

P3_MAL Rank (after) [5]: 703
P3_MAL Rank (before) [6]: 2351
Sequence: RGFLNHLHHHLQPNDH
